Laboratory results as given in patent US20140135310A1, “SULPHONAMIDE DERIVATIVES OF ALICYCLIC AMINES FOR THE TREATMENT OF CENTRAL NERVOUS SYSTEM DISEASES” (Adamed Sp. z o.o., priority 2011, published 2014).
Like-named read-outs stand apart in the source and are kept apart here.

Assays:
Type in all cases: cell-based
[1] = molecular target: D3 dopaminergic receptors (Homo sapiens, UniProt P35462); assay: Cellular functional assay, D3 dopaminergic receptors; conditions: for D3 ag [%]: agonism, percent of control specific agonist response (0.3 μM dopamine for control); for D3 ag [%] / D3 antag [%]: D3 (h), CHO cells; for D3 antag [%]: antagonism, stimulus dopamine (10 nM); for Kb: apparent dissociation constant, modified Cheng Prusoff equation, read-out: D3 antag Kb
Method: (§1) The results are expressed as a percent of control specific agonist response ((measured specific response/control specific agonist response)×100) obtained in the presence of the test compounds.
(§2) The EC50 values (concentration producing a half-maximal specific response) and IC50 values (concentration causing a half-maximal inhibition of the control specific agonist response) were determined by non-linear regression analysis of the concentration-response curves generated with mean replicate values using Hill equation curve fitting (Y=D+[(A−D)/(1+(C/C50)nH)], where Y=specific response, D=minimum specific response, A=maximum specific response, C=compound concentration, and C50=EC50 or IC50, and nH=slope factor). This analysis was performed using a software developed at Cerep (Hill software) and validated by comparison with data generated by the commercial software SigmaPlot® 4.0 for Windows® (© 1997 by SPSS Inc.).
(§3) For the antagonists, the apparent dissociation constants (Kb) were calculated using the modified Cheng Prusoff equation (Kb=IC50/(1+(A/EC50A)), where A=concentration of reference agonist in the assay, and EC50A=EC50 value of the reference agonist).

[2] = molecular target: 5-HT2A serotoninergic receptors (Homo sapiens, UniProt P28223); assay: Cellular functional assay, 5-HT2A serotoninergic receptors; conditions: for Kb: apparent dissociation constant, modified Cheng Prusoff equation, read-out: 5-HT2A antag Kb
Method: as §1
The EC50 values (concentration producing a half-maximal specific response) and IC50 values (concentration causing a half-maximal inhibition of the control specific agonist response) were determined by non-linear regression analysis of the concentration-response curves generated with mean replicate values using Hill equation curve fitting (Y=D+[(A−D)/(1+(C/C50)nH)], where Y=specific response, D=minimum specific response, A=maximum specific response, C=compound concentration, and C50=EC50 or IC50, and nH=slope factor).
as §3

[3] = molecular target: 5-HT6 serotoninergic receptors (Homo sapiens, UniProt P50406); assay: Cellular functional assay, 5-HT6 serotoninergic receptors; conditions: for 5-HT6 ag [%]: agonist mode, percent of control specific agonist response; for Kb: apparent dissociation constant, modified Cheng Prusoff equation, read-out: 5-HT6 antag Kb
Method: as §1, §2, §3

[4] = molecular target: D2 dopaminergic receptors (Homo sapiens, UniProt P14416); assay: Cellular functional assay, D2 dopaminergic receptors; conditions: for D2 ag [%]: agonism, percent of control specific agonist response (3 μM dopamine for control); for D2 ag [%] / D2 antag [%]: D2S (h), HEK-293 cells; for D2 antag [%]: antagonism, stimulus dopamine (30 nM); for Kb: apparent dissociation constant, modified Cheng Prusoff equation, read-out: D2 antag Kb
Method: as §1, §2, §3

[5] = agonist mode, percent of control specific agonist response

Chain of 5-HT2A serotoninergic receptors (P28223 whole entry): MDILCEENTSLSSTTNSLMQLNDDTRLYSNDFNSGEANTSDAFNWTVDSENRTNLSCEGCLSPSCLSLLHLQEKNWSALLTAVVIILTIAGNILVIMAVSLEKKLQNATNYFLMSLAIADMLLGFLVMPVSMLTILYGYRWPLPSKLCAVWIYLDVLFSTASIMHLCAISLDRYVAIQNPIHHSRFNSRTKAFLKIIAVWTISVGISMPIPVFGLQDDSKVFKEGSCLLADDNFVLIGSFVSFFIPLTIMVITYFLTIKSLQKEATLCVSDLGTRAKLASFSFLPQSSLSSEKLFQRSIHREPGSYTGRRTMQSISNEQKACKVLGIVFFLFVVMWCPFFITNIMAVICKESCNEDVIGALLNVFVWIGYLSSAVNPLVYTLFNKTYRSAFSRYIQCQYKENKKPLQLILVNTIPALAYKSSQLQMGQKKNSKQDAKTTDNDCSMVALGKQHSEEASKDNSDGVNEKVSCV
Chain of D2 dopaminergic receptors (P14416 whole entry): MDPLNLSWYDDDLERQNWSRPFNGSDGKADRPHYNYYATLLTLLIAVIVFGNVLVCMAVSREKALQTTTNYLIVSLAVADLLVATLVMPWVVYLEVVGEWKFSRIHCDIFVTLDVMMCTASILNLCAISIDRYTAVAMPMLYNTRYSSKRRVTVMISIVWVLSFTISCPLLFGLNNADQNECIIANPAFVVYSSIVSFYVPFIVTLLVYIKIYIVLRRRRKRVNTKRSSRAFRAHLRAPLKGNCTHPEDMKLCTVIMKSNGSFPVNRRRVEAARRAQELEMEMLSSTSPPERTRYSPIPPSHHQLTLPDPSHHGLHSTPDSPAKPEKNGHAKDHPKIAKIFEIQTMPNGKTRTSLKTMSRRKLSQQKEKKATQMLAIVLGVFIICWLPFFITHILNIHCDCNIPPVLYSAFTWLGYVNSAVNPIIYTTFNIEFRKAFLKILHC
Chain of D3 dopaminergic receptors (P35462 whole entry): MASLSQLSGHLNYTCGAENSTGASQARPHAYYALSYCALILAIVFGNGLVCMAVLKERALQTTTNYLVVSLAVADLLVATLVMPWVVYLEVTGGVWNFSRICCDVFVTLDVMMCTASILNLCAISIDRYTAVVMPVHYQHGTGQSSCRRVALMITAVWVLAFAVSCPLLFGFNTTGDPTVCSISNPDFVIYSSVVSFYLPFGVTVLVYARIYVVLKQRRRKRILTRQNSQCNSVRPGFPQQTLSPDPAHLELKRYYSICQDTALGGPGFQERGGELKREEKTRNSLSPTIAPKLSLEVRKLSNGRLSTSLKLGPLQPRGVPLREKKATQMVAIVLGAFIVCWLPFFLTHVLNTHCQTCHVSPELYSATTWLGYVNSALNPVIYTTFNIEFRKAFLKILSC
Chain of 5-HT6 serotoninergic receptors (P50406 whole entry): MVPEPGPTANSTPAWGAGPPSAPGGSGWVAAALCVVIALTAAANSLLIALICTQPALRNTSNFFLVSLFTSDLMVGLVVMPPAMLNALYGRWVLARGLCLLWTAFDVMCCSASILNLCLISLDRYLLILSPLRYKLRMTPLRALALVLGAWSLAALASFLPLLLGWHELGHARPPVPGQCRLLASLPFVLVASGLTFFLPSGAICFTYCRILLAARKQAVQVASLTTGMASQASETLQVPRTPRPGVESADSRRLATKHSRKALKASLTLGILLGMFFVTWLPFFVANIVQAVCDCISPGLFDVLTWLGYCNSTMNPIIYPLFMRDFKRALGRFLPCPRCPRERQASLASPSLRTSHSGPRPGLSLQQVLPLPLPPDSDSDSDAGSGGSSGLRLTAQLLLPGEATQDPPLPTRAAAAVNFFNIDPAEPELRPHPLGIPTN

Compound | D3 ag [%] [1] [%] | D3 antag [%] [1] [%] | Kb [1] [nM] | 5-HT2A ag [%] [2] [%] | Kb [2] [nM] | 5-HT6 ag [%] [3] [%] | D2 ag [%] [4] [%] | D2 antag [%] [4] [%] | Kb [4] [nM] | 5-HT2A ag [%] [2, 5] [%] | Kb [3] [nM] | 5-HT6 antag [%] ([3]; antagonist mode)
O=S(=O)(NC1CCN(CCCc2noc3cc(F)ccc23)C1)c1ccc2ccccc2c1 (stereo not shown) [Compound 21, N-[1-[3-(6-Fluoro-1,2-benzoxazol-3-yl)propyl]pyrrolidin-3-yl]naphthalene-2-sulphonamide] | −8 | 83 | 7.3 | 2 | 8.3 | 1 | 6 | 98 | 1.6 | – | – | –
O=S(=O)(NC1CCN(CCCc2noc3cc(F)ccc23)C1)c1ccc2cc(Cl)ccc2c1 (stereo not shown) [Compound 23, 6-Chloro-N-[1-[3-(6-fluoro-1,2-benzoxazol-3-yl)propyl]pyrrolidin-3-yl]naphthalene-2-sulphonamide] | −10 | 68 | – | – | – | −1 | 1 | 87 | – | −2 | – | –
O=S(=O)(NC1CCN(CCCc2noc3cc(F)ccc23)C1)c1cc2ccccc2s1 (stereo not shown) [Compound 25, N-[1-[3-(6-Fluoro-1,2-benzoxazol-3-yl)propyl]pyrrolidin-3-yl]-benzothiophene-2-sulphonamide] | 0 | 82 | 8 | −2 | 4.7 | 0 | 3 | 89 | 2.3 | – | 10 | –
Cc1c(S(=O)(=O)NC2CCN(CCCc3noc4cc(F)ccc34)C2)sc2ccc(F)cc12 (stereo not shown) [Compound 28, 5-Fluoro-N-[1-[3-(6-fluoro-1,2-benzoxazol-3-yl)propyl]pyrrolidin-3-yl]-3-methyl-benzothiophene-2-sulphonamide] | −8 | 74 | – | – | – | −1 | 1 | 87 | – | −2 | – | –
O=S(=O)(NC1CCN(CCCc2noc3cc(F)ccc23)CC1)c1cccc2ccccc12 [Compound 34, N-[1-[3-(6-Fluoro-1,2-benzoxazol-3-yl)propyl]-4-piperidine]-naphthalene-1-sulphonamide] | – | – | – | −1 | – | – | – | – | – | – | – | –
O=S(=O)(N[C@@H]1CCN(CCCc2noc3cc(F)ccc23)C1)c1cc2ccccc2s1 [Compound 196, N-[(3R)-1-[3-(6-Fluoro-1,2-benzoxazol-3-yl)propyl]pyrrolidin-3-yl]benzo-thiophene-2-sulphonamide] | −16 | 77 | 71 | 0 | 8.3 | −2 | 0 | 95 | 10 | – | 38 | –
O=S(=O)(N[C@H]1CCN(CCCc2noc3cc(F)ccc23)C1)c1cc2ccccc2s1 [Compound 197, N-[(3S)-1-[3-(6-Fluoro-1,2-benzoxazol-3-yl)propyl]pyrrolidin-3-yl]benzo-thiophene-2-sulphonamide] | – | – | – | 1 | – | −1 | 1 | 82 | – | – | – | –
O=S(=O)(N[C@@H]1CCN(CCCc2noc3cc(F)ccc23)C1)c1cc2ccc(Cl)cc2s1 [Compound 198, 6-Chloro-N-[(3R)-1-[3-(6-fluoro-1,2-benzoxazol-3-yl)propyl]pyrrolidin-3-yl]benzothiophene-2-sulphonamide] | −17 | 97 | – | – | – | −1 | 4 | 83 | – | −3 | – | –
O=S(=O)(N[C@H]1CCN(CCCc2noc3cc(F)ccc23)C1)c1cc2ccc(Cl)cc2s1 [Compound 199, 6-Chloro-N-[(3S)-1-[3-(6-fluoro-1,2-benzoxazol-3-yl)propyl]pyrrolidin-3-yl]benzothiophene-2-sulphonamide] | – | – | – | – | – | −3 | 4 | 46 | – | −2 | – | –
O=S(=O)(N[C@@H]1CCN(CCCc2noc3cc(F)ccc23)C1)c1ccc2cc(Cl)ccc2c1 [Compound 200, 6-Chloro-N-[(3R)-1-[3-(6-fluoro-1,2-benzoxazol-3-yl)propyl]pyrrolidin-3-yl]naphthalene-2-sulphonamide] | −1 | 93 | – | – | – | −2 | 0 | 96 | – | 0 | – | –
Cc1c(S(=O)(=O)N[C@@H]2CCN(CCCc3noc4cc(F)ccc34)C2)sc2ccc(F)cc12 [Compound 202, 5-Fluoro-N-[(3R)-1-[3-(6-fluoro-1,2-benzoxazol-3-yl)propyl]pyrrolidin-3-yl]-3-methyl-benzothiophene-2-sulphonamide] | −5 | 81 | – | – | – | 1 | 0 | 95 | – | 0 | – | –
O=S(=O)(N[C@H]1CCN(CCCc2noc3cc(F)ccc23)C1)c1cc2ccccc2o1 [Compound 215, N-[(3S)-1-[3-(6-Fluoro-1,2-benzoxazol-3-yl)propyl]pyrrolidin-3-yl]benzo-furan-2-sulphonamide] | – | – | – | – | – | −2 | 6 | 91 | – | −2 | – | –
O=S(=O)(NC1CCN(CCCc2noc3cc(F)ccc23)C1)c1cc2ccccc2o1 (stereo not shown) [Compound 216, N-[1-[3-(6-Fluoro-1,2-benzoxazol-3-yl)propyl]pyrrolidin-3-yl]benzofuran-2-sulphonamide] | – | – | – | – | – | −5 | 0 | 86 | – | −2 | – | –
COc1ccc2cc(S(=O)(=O)N[C@H]3CCN(CCCc4noc5cc(F)ccc45)C3)ccc2c1 [Compound 231, N-[(3S)-1-[3-(6-Fluoro-1,2-benzoxazol-3-yl)propyl]pyrrolidin-3-yl]-6-methoxy-naphthalene-2-sulphonamide] | −6 | 54 | – | – | – | – | 13 | 49 | – | 0 | – | –
O=S(=O)(NCC1CCN(CCCc2noc3cc(F)ccc23)C1)c1cccc2ccccc12 (stereo not shown) [Compound 239, N-[[1-[3-(6-Fluoro-1,2-benzoxazol-3-yl)propyl]pyrrolidin-3-yl]methyl]naphthalene-1-sulphonamide] | – | – | – | −2 | – | 2 | 2 | 56 | – | – | – | –
O=S(=O)(NCC1CCN(CCCc2noc3cc(F)ccc23)C1)c1ccc2ccccc2c1 (stereo not shown) [Compound 240, N-[[1-[3-(6-Fluoro-1,2-benzoxazol-3-yl)propyl]pyrrolidin-3-yl]methyl]-naphthalene-2-sulphonamide] | – | – | – | −1 | – | 4 | 3 | 64 | – | – | – | –
N-[1-[3-(6-Fluoro-1,2-benzoxazol-3-yl)propyl]pyrrolidin-3-yl]-1-methyl-imidazole-4-sulphonamide [Compound 217] | – | – | – | – | – | −6 | 10 | 79 | – | −2 | – | 85
